{
  "source": "ChEMBL document CHEMBL1158108",
  "about": "“C35 terpenoids from the bark of Calocedrus macrolepis var. formosana with activity against human cancer cell lines” (J Nat Prod, 2006)",
  "tested_on": "KB",
  "assay": "Cytotoxicity against human KB cells after 72 hrs",
  "type": "functional, cell-based",
  "data": [
    {"compound": "COc1cc([C@@H]2c3cc4c(cc3[C@@H](O[C@@H]3O[C@@H]5CO[C@@H](C)O[C@H]5[C@H](O)[C@H]3O)[C@H]3COC(=O)[C@H]23)OCO4)cc(OC)c1O", "note": "[ETOPOSIDE]", "values": [
      {"measurement": "IC50", "result": 2, "unit": "µM"}
    ]},
    {"compound": "CC(C)c1cc2c(cc1O)[C@@]1(C)CCCC(C)(C)[C@@H]1C[C@H]2CC1=C[C@@H]2[C@@H](CC1)[C@](C)(O)CC[C@H]2C(C)C", "note": "[FERRUGICADINOL]", "values": [
      {"measurement": "IC50", "result": 14.1, "unit": "µM"}
    ]},
    {"compound": "C=C1CC[C@@H]([C@H]2C[C@H]3C(C)(C)CCC[C@]3(C)c3cc(O)c(C(C)C)cc32)[C@]2(C)CC[C@@H](C(C)(C)O)C[C@@H]12", "note": "[FERRUGIEUDESMOL]", "values": [
      {"measurement": "IC50", "result": 11.4, "unit": "µM"}
    ]}
  ]
}
